Tests used:
VHL-ElonginBC complex = target: T1, VHL-ElonginBC complex (Homo sapiens, UniProt P40337); assay: Fluorescence-polarization (FP) competitive binding assay for VHL; conditions: VHL ligands; VHL-ElonginBC complex and fluorescent probe both 5 nM; read-out: FP Binding affinity IC50
T1 construct: His-TEV (His-tag with TEV protease site) (cleaved yes); made in house; host or cells: E. coli BL21(DE3)
Method: Cloning and Purification of VHL-ElonginBC complex. The DNA sequence of VHL (coding for residues 54-213) was constructed by PCR and inserted into a His-TEV expression vector^58 using ligation-independent cloning. The DNA sequences of Elongin B (encoding residues 1-118) and Elongin C (encoding residues 1-96) were constmcted by PCR and inserted into pCDFDuet 1 using Gibson assembly.^59 BL21(DE3) cells were transformed simultaneously with both plasmids and grown in Terrific Broth at 37° C. until an OD600 of 1.2. The cells were induced overnight with 0.4 mM IPTG at 24° C. Pelleted cells were freeze-thawed then resuspended in 20 mM Tris HCl pH7.0, 200 mM NaCl and 0.1% β-mercaptoethanol (bME) containing protease inhibitors. The cell suspension was lysed by sonication and debris removed via centrifugation. The supernatant was incubated at 4° C. for 1 hr with Ni-NTA (Qiagen) pre-washed in 20 mM Tris-HCl pH 7.0, 200 mM NaCl and 10 mM Imidazole. The protein complex was eluted in 20 mM Tris-HCl pH 7.0, 200 mM NaCl and 300 mM Imidazole, dialyzed into 20 mM Tris-HCl pH 7.0, 150 mM NaCl, and 0.01% bME and incubated with TEV protease overnight at 4° C. The protein sample was reapplied to the Ni-NTA column to remove the His-tag. The flow through containing the VHL complex was diluted to 75 mM NaCl and applied to a HiTrap Q column (GE Healthcare). The sample was eluted with a salt gradient (0.075-1 M NaCl), concentrated and further purified on a Superdex S75 column (GE Healthcare) pre-equilibrated with 20 mM Bis-Tris 7.0, 150 mM NaCl and 1 mM DTT. Samples were aliquoted and stored at −80° C.
Binding Affinities of VHL ligands to VHL. A fluorescence-polarization (FP) competitive assay was established using VHL-ElonginBC complex and a fluorescently tagged probe (SI). The IC50 and Ki values of VHL ligands were determined in competitive binding experiments. Mixtures of 5 μL of compounds in DMSO and 95 μL of preincubated protein/tracer complex solution were added into assay plates which were incubated at rt for 60 min with gentle shaking. Final concentrations of VHL-ElonginBC complex and fluorescent probe were both 5 nM. Negative controls containing protein/probe complex only (equivalent to 0% inhibition) and positive controls containing only free probes (equivalent to 100% inhibition) were included in each assay plate. FP values in millipolarization units (mP) were measured using the Infinite M-1000 plate reader (Tecan U.S., Research Triangle Park, N.C.) in Microfluor 1 96-well, black, round-bottom plates (Thermo Scientific, Waltham, Mass.) at an excitation wavelength of 485 nm and an emission wavelength of 530 nm. IC50 values were determined by nonlinear regression fitting of the competition curves. Ki values of competitive inhibitors were obtained directly by nonlinear regression fitting, based upon the KD values of the probe and concentrations of the protein and probe in the competitive assays. All the FP competitive experiments were performed in duplicate in three independent experiments.

MCF-7 cells = assay: WST-8 cell proliferation assay in MCF-7 cells; format: cell-based, human; conditions: MCF-7 cells, WST-8, 4 days
Method: (§1) Cell Culture. Human breast cancer cell lines MCF-7 (ATCC® HTB-22™) and T47D (ATCC® HTB-133™) were purchased from the American Type Culture Collection (ATCC), Manassas, Va., and maintained and cultured in Dulbecco's Modified Eagle's medium (DMEM) containing 10% fetal bovine serum, 1 unit/ml of penicillin and 1 μg/ml of streptomycin. Cells with 3-8 passages after purchase were used in experiments as indicated.
Cell Growth Assay. Cells were seeded at 1500/well in 96 well plates overnight. One day after seeding, they were treated with indicated doses of compounds. The growth of the cells was evaluated by colorimetric WST-8 assay 4 days after the compound treatment following the instructions of the manufacturer, Cayman Chemical, Ann Arbor, Mich.
Fulvestrant achieves an Imax value of 43.8%. […] RAD1901, a previously reported SERD molecule^18, achieves an Imax value of 25.7%.

ERα [1] = target: T2, ERα (Homo sapiens, UniProt P03372); assay: Mechanism of ER degradation: pretreatment with VHL ligand, ER ligand or proteasome inhibitor, Western blotting in MCF-7 cells; format: cell-based; design: host or cells: MCF-7; conditions: 1 μM, alone
T2 sequence (P03372 1-595): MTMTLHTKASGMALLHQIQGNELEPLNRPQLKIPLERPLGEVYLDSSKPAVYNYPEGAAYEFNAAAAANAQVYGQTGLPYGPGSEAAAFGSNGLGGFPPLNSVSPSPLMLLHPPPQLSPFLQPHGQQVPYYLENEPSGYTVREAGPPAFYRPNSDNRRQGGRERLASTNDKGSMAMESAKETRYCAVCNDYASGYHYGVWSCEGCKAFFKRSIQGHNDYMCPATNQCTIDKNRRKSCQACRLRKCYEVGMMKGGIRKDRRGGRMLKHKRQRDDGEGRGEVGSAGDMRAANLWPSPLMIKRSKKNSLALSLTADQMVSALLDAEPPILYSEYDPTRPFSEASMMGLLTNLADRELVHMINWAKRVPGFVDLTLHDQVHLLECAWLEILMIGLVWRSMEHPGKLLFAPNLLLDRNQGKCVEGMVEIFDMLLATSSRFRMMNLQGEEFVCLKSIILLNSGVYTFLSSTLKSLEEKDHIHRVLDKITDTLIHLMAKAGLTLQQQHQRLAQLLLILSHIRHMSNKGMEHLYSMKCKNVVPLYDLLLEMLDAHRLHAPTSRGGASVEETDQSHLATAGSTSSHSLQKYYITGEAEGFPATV
Method: (§2) Then whole-cell lysates were analyzed by Western blotting.
as §2
Western Blot Analysis. […] Cells treated with indicated compounds were lysed in Radioimmunoprecipitation Assay Protein Lysis and Extraction Buffer (25 mmol/L Tris.HCl, pH 7.6, 150 mmol/L NaCl, 1% Nonidet P-40, 1% sodium deoxycholate, and 0.1% sodium dodecyl sulfate) containing proteinase inhibitor cocktail (Roche Diagnostics, Mannheim, Germany). After determination of protein concentration by BCA assay (Fisher Scientific, Pittsburgh, Pa.), equal amounts of total protein were electrophoresed through 10% SDS-polyacrylamide gels. The separated protein bands were transferred onto PVDF membranes (GE Healthcare Life Sciences, Marlborough, Mass.) and blotted against different antibodies, as indicated. The human estrogen receptor a antibodies (AB16460) were purchased from Abeam, Inc., Cambridge, Mass. The membranes were reblotted with horseradish peroxidase-conjugated anti-glyceraldehyde-3-phosphate dehydrogenase antibody (G9295) from Sigma-Aldrich Corporation, St. Louis, Mo. The blots were scanned and the band intensities were quantified using GelQuant.NET software as described in biochemlabsolutions.com. The relative mean intensity of target proteins was expressed after normalization to the intensity of glyceraldehyde-3-phosphate dehydrogenase bands from individual repeats.

ERα [2] = target: T2, ERα; assay: ER degradation by Western blotting in MCF-7 cells; format: cell-based; design: host or cells: MCF-7; conditions: 30 nM
Method: FIG. 1 is an image showing the Western blotting analysis of ER protein in MCF-7 cells treated with Compounds of the Disclosure and control compounds. Cells were treated with different compounds for 4 h and whole cell lysates were then analyzed by Western blotting to examine the level of ER protein. GADPH protein was used for the loading control. The numbers below the panel represent the ERα/GADPH ratio normalized with the DMSO control at 100.
FIG. 2 is an image showing the Western blotting analysis of ER protein in the MCF-7 cells treated with indicated compounds at 1 nM, 10 nM and 100 nM. MCF-7 cells were treated with different compounds for 4 h and whole cell lysates were analyzed by Western blotting to examine the level of ER protein. GADPH protein was used for the loading control. The numbers below the panel represent the ERα/GADPH ratio normalized with the DMSO control at 100.
FIG. 7 is an image showing the ERα degradation dose-response Western blotting for compound 32 at 4 h in MCF-7 cells.
FIG. 9 is an image showing the time course of ERα degradation by Western blotting by compound 32 (30 nM) and fulvestrant (30 nM) in the MCF-7 cells.
as §1
Western Blot Analysis. Western blot analysis was performed essentially as described previously (Hu et al, 2015, PMID: 26358219). Cells treated with indicated compounds were lysed in Radioimmunoprecipitation Assay Protein Lysis and Extraction Buffer (25 mmol/L Tris.HCl, pH 7.6, 150 mmol/L NaCl, 1% Nonidet P-40, 1% sodium deoxycholate, and 0.1% sodium dodecyl sulfate) containing proteinase inhibitor cocktail (Roche Diagnostics, Mannheim, Germany). After determination of protein concentration by BCA assay (Fisher Scientific, Pittsburgh, Pa.), equal amounts of total protein were electrophoresed through 10% SDS-polyacrylamide gels. The separated protein bands were transferred onto PVDF membranes (GE Healthcare Life Sciences, Marlborough, Mass.) and blotted against different antibodies, as indicated. The human estrogen receptor a antibodies (AB16460) were purchased from Abeam, Inc., Cambridge, Mass. The membranes were reblotted with horseradish peroxidase-conjugated anti-glyceraldehyde-3-phosphate dehydrogenase antibody (G9295) from Sigma-Aldrich Corporation, St. Louis, Mo. The blots were scanned and the band intensities were quantified using GelQuant.NET software as described in biochemlabsolutions.com. The relative mean intensity of target proteins was expressed after normalization to the intensity of glyceraldehyde-3-phosphate dehydrogenase bands from individual repeats.

[3] = background statement; cited from earlier work
[4] = background statement; cited from earlier work; remark: listed apart in the source

Row | IC50 (VHL-ElonginBC complex) | SMILES | maximum inhibition (Imax) (MCF-7 cells) | other results
1 | 58.9 ± 5.26 µM | CC(=O)N[C@H](C(=O)N1C[C@H](O)C[C@H]1C(=O)N[C@@H](C)c1ccc(C(C)(C)C)cc1)C(C)(C)C [48a, (2S,4R)-1-((S)-2-acetamido-3,3-dimethylbutanoyl)-N—((S)-1-(4-(tert-butyl)phenyl)ethyl)-4-hydroxypyrrolidine-2-carboxamide] |  | 
2 |  | CCNCCc1ccc(CN(CC)c2cc(OC)ccc2[C@@H]2CCc3cc(O)ccc3C2)cc1 [RAD1901] | 25.7% | 
3 |  | CC(C)C[C@H](NC(=O)[C@H](CCc1ccccc1)NC(=O)CN1CCOCC1)C(=O)N[C@@H](Cc1ccccc1)C(=O)N[C@@H](CC(C)C)C(=O)[C@@]1(C)CO1 [carfilzomib, reference compound] |  | effect alone on ER protein levels (ERα [1]): no effect
4 | 0.196 ± 0.006 µM | CC(=O)N[C@H](C(=O)N1C[C@H](O)C[C@H]1C(=O)N[C@@H](C)c1ccc(-c2scnc2C)cc1)C(C)(C)C [compound 11, (2S,4R)-1-((S)-2-Acetamido-3,3-dimethylbutanoyl)-4-hydroxy-N—((S)-1-(4-(4-methylthiazol-5-yl)phenyl)ethyl)pyrrolidine-2-carboxamide, reference compound] |  | 
5 |  | C[C@]12CC[C@@H]3c4ccc(O)cc4C[C@@H](CCCCCCCCC[S+]([O-])CCCC(F)(F)C(F)(F)F)[C@H]3[C@@H]1CC[C@@H]2O (stereo partly shown) [fulvestrant] | 43.8% | reduction of ER protein level at 1 h (ERα [2]; 1 h treatment): only a modest effect; maximum ER degradation in time course (ERα [2]; after a 24 h treatment): approximately 90%; oral bioavailability [3]: not orally bioavailable; solubility [4]: poor solubility
6 |  | O=C(c1ccc(OCCN2CCCCC2)cc1)c1c(-c2ccc(O)cc2)sc2cc(O)ccc12 [raloxifene] | 34.0% | 

Reference: patent US20220079931A1, “ESTROGEN RECEPTOR PROTEIN DEGRADERS” (THE REGENTS OF THE UNIVERSITY OF MICHIGAN, priority 2019, published 2022)
